Tested on: human LINE-1
Assay: Human LINE-1 retrotransposition assay (HeLa cell-based dual-luciferase reporter)
Conditions: Homo sapiens, HeLa, 72 h, Human LINE-1 activity inhibition; HeLa cells, reporter plasmid pYX017, Firefly/Renilla, 72 h incubation
Summary of the method: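 HeLa cells transfected with pYX017 dual-luciferase L1 reporter and treated with serially diluted compound (0.2% DMSO final) for 72 h at 37° C. Relative L1 activity as Firefly/Renilla ratio; IC50 from four-parameter logistic fit.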

IC50	SMILES
> 50 µM	C#C[C@@]1(CO)C=C[C@H](n2cnc3cncnc32)O1 [compound 38, ((2R,5R)-2-ethynyl-5-(9H-purin-9-yl)-2,5-dihydrofuran-2-yl)methanol]
> 50 µM	C[C@]1(CO)O[C@@H](n2ccc(N)nc2=O)[C@H](O)[C@@H]1O [compound 198, 4-amino-1-((2R,3R,4S,5R)-3,4-dihydroxy-5-(hydroxymethyl)-5-methyltetrahydrofuran-2-yl)pyrimidin-2(1H)-one]
9.93 µM	C=C[C@]1(CO)O[C@@H](n2cc(Br)c(=O)[nH]c2=O)C[C@@H]1O [Cpd. No. 64, 5-bromo-1-((2R,4S,5R)-4-hydroxy-5-(hydroxymethyl)-5-vinyltetrahydrofuran-2-yl)pyrimidine-2,4(1H,3H)-dione]
7 µM	CC[C@]1(CO)O[C@@H](n2cnc3c(NC4CC4)ncnc32)C[C@@H]1O [Cpd. No. 96, (2R,3S,5R)-5-(6-(cyclopropylamino)-9H-purin-9-yl)-2-ethyl-2-(hydroxymethyl)tetrahydrofuran-3-ol]
5.65 µM	C#C[C@]1(CO)OC(n2cc(Br)c(N)nc2=O)C[C@@H]1O (stereo partly drawn) [compound 60, 4-amino-5-bromo-1-((4S,5R)-5-ethynyl-4-hydroxy-5-(hydroxymethyl)tetrahydrofuran-2-yl)pyrimidin-2(1H)-one]
> 50 µM	C#C[C@@]1(CO)C[C@@H](Sc2ccc(C)cc2)[C@H](n2cc(C)c(=O)[nH]c2=O)O1 [compound 26, 1-((2R,3R,5R)-5-ethynyl-5-(hydroxymethyl)-3-(p-tolylthio)tetrahydrofuran-2-yl)-5-methylpyrimidine-2,4(1H,3H)-dione]
0.124 µM	C#C[C@]1(CO)O[C@@H](n2cnc3c(NC4CC4)nc(F)nc32)C[C@@H]1O [compound 85, (2R,3S,5R)-5-(6-(cyclopropylamino)-2-fluoro-9H-purin-9-yl)-2-ethynyl-2-(hydroxymethyl)tetrahydrofuran-3-ol]
> 50 µM	C=C[C@]1(CO)O[C@@H](n2cnc3c(NC4CC4)ncnc32)C[C@@H]1O [Cpd. No. 94, (2R,3S,5R)-5-(6-(cyclopropylamino)-9H-purin-9-yl)-2-(hydroxymethyl)-2-vinyltetrahydrofuran-3-ol]
> 50 µM	C#C[C@@]1(CO)C=C[C@H](n2cc(C)c(N)nc2=O)O1 [compound 42, 4-amino-1-((2R,5R)-5-ethynyl-5-(hydroxymethyl)-2,5-dihydrofuran-2-yl)-5-methylpyrimidin-2(1H)-one]
0.721 µM	CC[C@]1(CO)OC(n2cc(OC)c(=O)[nH]c2=O)C[C@@H]1O (stereo partly drawn) [Cpd. No. 68, 1-((4S,5R)-5-ethyl-4-hydroxy-5-(hydroxymethyl)tetrahydrofuran-2-yl)-5-methoxypyrimidine-2,4(1H,3H)-dione]
> 50 µM	C#C[C@@]1(CO)C=C[C@H](n2cc(OC(F)F)c(=O)[nH]c2=O)O1 [compound 57, 5-(difluoromethoxy)-1-((2R,5R)-5-ethynyl-5-(hydroxymethyl)-2,5-dihydrofuran-2-yl)pyrimidine-2,4(1H,3H)-dione]
0.946 µM	CC[C@]1(CO)O[C@@H](n2cnc3c(NC4CC4)nc(N)nc32)C[C@@H]1O [Cpd. No. 97, (2R,3S,5R)-5-(2-amino-6-(cyclopropylamino)-9H-purin-9-yl)-2-ethyl-2-(hydroxymethyl)tetrahydrofuran-3-ol]
6.2 µM	C=C[C@]1(CO)O[C@@H](n2cc(C#N)c(=O)[nH]c2=O)C[C@@H]1O [Cpd. No. 69, 1-((2R,4S,5R)-4-hydroxy-5-(hydroxymethyl)-5-vinyltetrahydrofuran-2-yl)-2,4-dioxo-1,2,3,4-tetrahydropyrimidine-5-carbonitrile]
0.876 µM	C#C[C@]1(CO)OC(n2cc(C)c(=O)[nH]c2=O)C[C@@H]1O (stereo partly drawn) [compound 43, 1-((4S,5R)-5-ethynyl-4-hydroxy-5-(hydroxymethyl)tetrahydrofuran-2-yl)-5-methylpyrimidine-2,4(1H,3H)-dione]
> 50 µM	C#C[C@]1(CO)C=C[C@@H](n2cc(F)c(N)nc2=O)O1 [Cpd. No. 74, 4-amino-1-[(2S,5S)-5-ethynyl-5-(hydroxymethyl)-2H-furan-2-yl]-5-fluoro-pyrimidin-2-one]
0.052 µM	C#C[C@]1(CO)O[C@H](n2cnc3c(=O)[nH]c(N)nc32)C[C@@H]1O [compound 49, 2-amino-9-((2S,48,5R)-5-ethynyl-4-hydroxy-5-(hydroxymethyl)tetrahydrofuran-2-yl)-1,9-dihydro-6H-purin-6-one]
14 µM	C#C[C@]1(CO)O[C@H](n2cnc3c(NC4CC4)nc(F)nc32)C[C@@H]1O [compound 84, (2R,3S,5S)-5-(6-(cyclopropylamino)-2-fluoro-9H-purin-9-yl)-2-ethynyl-2-(hydroxymethyl)tetrahydrofuran-3-ol]
20.9 µM	C#C[C@]1(CO)OC(n2cc(OC)c(=O)[nH]c2=O)C[C@@H]1O (stereo partly drawn) [compound 59, 1-((4S,5R)-5-ethynyl-4-hydroxy-5-(hydroxymethyl)tetrahydrofuran-2-yl)-5-methoxypyrimidine-2,4(1H,3H)-dione]
4.9 µM	C=C[C@]1(CO)O[C@H](Nc2[nH]c(=O)ncc2Br)C[C@@H]1O [compound 104, 5-bromo-6-(((2S,4S,5R)-4-hydroxy-5-(hydroxymethyl)-5-vinyltetrahydrofuran-2-yl)amino)pyrimidin-2(1H)-one]
0.173 µM	C=C[C@]1(CO)O[C@H](n2cnc3c(O)nc(N)nc32)C[C@@H]1O [compound 87, 2-amino-9-((2S,4S,5R)-4-hydroxy-5-(hydroxymethyl)-5-vinyltetrahydrofuran-2-yl)-9H-purin-6-ol]
> 12.5 µM	CC[C@]1(CO)O[C@@H](n2cc(OC)c(=O)[nH]c2=O)C[C@@H]1O [Cpd. No. 103, 1-((2R,4S,5R)-5-ethyl-4-hydroxy-5-(hydroxymethyl)tetrahydrofuran-2-yl)-5-methoxypyrimidine-2,4(1H,3H)-dione]
0.429 µM	C#C[C@]1(CO)O[C@H](n2cnc3c(NC4CC4)nc(N)nc32)C[C@@H]1O [compound 83, (2R,3S,5S)-5-(2-amino-6-(cyclopropylamino)-9H-purin-9-yl)-2-ethynyl-2-(hydroxymethyl)tetrahydrofuran-3-ol]
> 50 µM	C#C[C@@]1(CO)C=C[C@H](n2ccc3c(=O)[nH]cnc32)O1 [compound 34, 7-((2R,5R)-5-ethynyl-5-(hydroxymethyl)-2,5-dihydrofuran-2-yl)-3,7-dihydro-4H-pyrrolo[2,3-d]pyrimidin-4-one]
3.4 µM	C#C[C@]1(CO)O[C@@H](n2cnc3c(NC4CC4)ncnc32)C[C@@H]1O [compound 86, (2R,3S,5R)-5-(6-(cyclopropylamino)-9H-purin-9-yl)-2-ethynyl-2-(hydroxymethyl)tetrahydrofuran-3-ol]
9.17 µM	C[C@]1(CO)O[C@@H](n2cc(F)c(=O)[nH]c2=O)[C@H](O)[C@@H]1O [compound 189, 1-((2R,3R,4S,5R)-3,4-dihydroxy-5-(hydroxymethyl)-5-methyltetrahydrofuran-2-yl)-5-fluoropyrimidine-2,4(1H,3H)-dione]
0.062 µM	CC[C@]1(CO)O[C@@H](n2cnc3c(O)ncnc32)C[C@@H]1O [Cpd. No. 1]

— patent US20260035403A1, “NUCLEOSIDE LINE-1 INHIBITORS” (TRANSPOSON THERAPEUTICS, INC., priority 2022, published 2026)
